Results: patent US20250303005A1, “PROSTATE SPECIFIC MEMBRANE ANTIGEN (PSMA) LIGANDS WITH IMPROVED RENAL CLEARANCE” (Deutsches Krebsforschungszentrum Stiftung des öffentlichen …, priority 2022, published 2025)
Like-named read-outs stand apart in the source and are kept apart here. Starred links: 1 amine or outer side, 2 acyl side, 3 side chain; linkers in the order of their positions; H or OH if unused. Non-standard residues stand in square brackets, D forms with d. Residues, ends and D or L forms follow the SMILES beside them. ξ: configuration not given here. *: point of attachment. DOTA = O=C(O)CN1CCN(CC(=O)O)CCN(CC(=O)*)CCN(CC(=O)O)CC1; EuK = O=C(O)CC[C@H](NC(=O)N[C@@H](CCCCN*)C(=O)O)C(=O)O; X2 = O=C(O)CCC(NC(=O)NC(CCCCN*)C(=O)O)C(=O)O; 2Nal = N[C@@H](Cc1ccc2ccccc2c1)C(=O)O; ξ2Nal = NC(Cc1ccc2ccccc2c1)C(=O)O; Trx = NC[C@H]1CC[C@H](C(=O)O)CC1; X1 = O=C(C1CCC(CN[*:1])CC1)[*:2]; Sar = CNCC(=O)O

Columns and labels:
[1] = test system: prostate cancer patients; conditions: two patients with extremely advanced and end-stage disease; cited from earlier work
[2] = target: T1, PSMA (Homo sapiens, UniProt Q04609); experiment: Competitive cell binding assay against 68Ga-PSMA-10 on LNCaP cells
T1 construct: in vitro using PSMA^+-cells (LNCaP); host or cells: LNCaP
Experimental: PSMA+LNCaP cells (CRL-1740; ATCC; PSMA-positive) and PC-3 cells (CRL-1435; ATCC; PSMA-negative) were cultured in RPMI medium supplemented with 10% fetal calf serum and 2 mmol/L L-glutamine (all from PAA). Cells were grown at 37° C. in humidified air with 5% CO2 and were harvested using trypsin-ethylenediaminetetraacetic acid (trypsin-EDTA; 0.25% trypsin, 0.02% EDTA, Invitrogen). The competitive cell binding assay and internalization experiments were performed as described previously (2). For competitive cell binding, the cells (10^5 per well) were incubated with a 0.8 nM solution of ^68Ga-labeled radioligand [Glu-urea-Lys(Ahx)]2-HBED-CC (PSMA-10, precursor ordered from ABX, Radeberg, Germany) in the presence of 12 different concentrations of DOTA-compound (0-5000 nM, 100 μL/well). After incubation, the mixture was removed and the wells were washed 3 times with PBS using a multiscreen vacuum manifold (Millipore, Billerica, MA). Cell-bound radioactivity was measured using a gamma counter (Perkin Elmer 2480, Wizard, Gamma Counter). The 50% inhibitory concentration (IC50) values were calculated by fitting the data using a nonlinear regression algorithm (GraphPad Software) (see Table 2)

[3] = test system: PSMA+LNCaP cells; experiment: Cell surface binding and internalization of 68Ga-labeled compounds; type: cell-based; conditions: specific uptake by blockage with 500 μM 2-PMPA, mean ± SD (n = 3)
Experimental: (§1) PSMA+LNCaP cells (CRL-1740; ATCC; PSMA-positive) and PC-3 cells (CRL-1435; ATCC; PSMA-negative) were cultured in RPMI medium supplemented with 10% fetal calf serum and 2 mmol/L L-glutamine (all from PAA). Cells were grown at 37° C. in humidified air with 5% CO2 and were harvested using trypsin-ethylenediaminetetraacetic acid (trypsin-EDTA; 0.25% trypsin, 0.02% EDTA, Invitrogen).
(§2) For internalization experiments, 10^5 cells per well were seeded in poly-L-lysine coated 24-well cell culture plates 24 h before incubation. After washing, the cells were incubated with 30 nM of the radiolabeled DOTA-compound (radiolabeled with ^68Ga or ^177Lu) for 45 min at 37° C. (labeling was performed with 5 nmol of precursor peptide). Specific cell uptake was determined by blockage using 500 μM 2-PMPA (2-(phosphonomethyl)pentanedioic acid). Cellular uptake was terminated by washing 3 times with 1 mL of ice-cold PBS. To remove surface-bound radioactivity, cells were incubated twice with 0.5 mL glycine-HCl in PBS (50 mM, pH=2.8) for 5 min. The cells were washed with 1 mL of ice-cold PBS and lysed using 0.3 N NaOH (0.5 mL). The surface-bound and the internalized fractions were measured in a gamma counter. The cell uptake was calculated as percent of the initially added radioactivity bound to 10^5 cells [% ID/10^5 cells] (see Table 2 and Table 2a).

[4] = test system: PSMA+LNCaP cells; experiment: Cell surface binding and internalization of 177Lu labeled compounds, without or with blocking by 2-PMPA; type: cell-based; conditions: 7.5 pmol precursor per 10^5 cells, 45 min; for Internalization Block / Surface Block: with blocking by 500 μM 2-PMPA (n = 3); for Internalization / Surface: without blocking (n = 3)
Experimental: as §1, §2

[5] = free ligands, LNCaP, radioligand 68Ga-PSMA-10 0.8 nM, mean ± SD (n = 3), read-out: ki free ligands

T1 sequence (Q04609 whole entry): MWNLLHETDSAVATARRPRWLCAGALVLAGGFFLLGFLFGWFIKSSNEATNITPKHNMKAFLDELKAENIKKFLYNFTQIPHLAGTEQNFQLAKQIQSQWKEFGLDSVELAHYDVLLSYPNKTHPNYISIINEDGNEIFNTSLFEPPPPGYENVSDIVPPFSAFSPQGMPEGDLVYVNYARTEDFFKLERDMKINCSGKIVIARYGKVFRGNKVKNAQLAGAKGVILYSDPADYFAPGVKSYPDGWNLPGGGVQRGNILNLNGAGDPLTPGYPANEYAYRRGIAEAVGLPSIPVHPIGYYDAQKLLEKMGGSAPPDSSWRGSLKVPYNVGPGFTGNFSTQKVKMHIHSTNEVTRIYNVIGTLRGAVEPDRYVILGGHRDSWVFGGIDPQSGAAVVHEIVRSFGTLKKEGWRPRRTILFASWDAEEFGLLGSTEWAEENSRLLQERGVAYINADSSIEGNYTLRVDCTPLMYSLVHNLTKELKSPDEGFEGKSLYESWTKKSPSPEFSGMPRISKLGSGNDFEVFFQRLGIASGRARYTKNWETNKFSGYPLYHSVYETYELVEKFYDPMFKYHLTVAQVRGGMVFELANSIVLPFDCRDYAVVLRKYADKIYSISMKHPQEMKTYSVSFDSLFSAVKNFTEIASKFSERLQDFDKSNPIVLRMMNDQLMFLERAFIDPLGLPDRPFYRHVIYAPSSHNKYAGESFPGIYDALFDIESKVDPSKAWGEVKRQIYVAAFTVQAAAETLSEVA

Ki [2, 5]	Structure (SMILES)	Response in patients [1]	Ki [2]	Specifically cell surface bound [3]	Specifically internalized [3]	Internalization Block [4]	Surface Block [4]	Internalization [4]	Surface [4]
0.0543 ± 0.0336 µM	CN(CC(=O)NCC1CCC(C(=O)NC(Cc2ccc3ccccc3c2)C(=O)NCCCCC(NC(=O)NC(CCC(=O)O)C(=O)O)C(=O)O)CC1)C(=O)CN(C)C(=O)CN(C)C(=O)CN(C)C(=O)CN(C)C(=O)CN1CCN(CC(=O)O)CCN(CC(=O)O)CCN(CC(=O)O)CC1 (stereo not shown) [DOTA-Sar5-Chx-2-NaI-Lys-urea-Glu] ({DOTA}-[Sar][Sar][Sar][Sar][Sar][X1][ξ2Nal]-X2)			2.79 ± 0.50 % AR/10^5 cells	1.99 ± 1.15 % AR/10^5 cells	0.00 ± 0.00 % AR/10^5 cells	0.02 ± 0.01 % AR/10^5 cells	0.10 ± 0.06 % AR/10^5 cells	0.47 ± 0.12 % AR/10^5 cells
0.0968 ± 0.0964 µM	CN(CC(=O)NCC1CCC(C(=O)NC(Cc2ccc3ccccc3c2)C(=O)NCCCCC(NC(=O)NC(CCC(=O)O)C(=O)O)C(=O)O)CC1)C(=O)CN(C)C(=O)CN(C)C(=O)CN(C)C(=O)CN(C)C(=O)CN(C)C(=O)CN(C)C(=O)CN(C)C(=O)CN(C)C(=O)CN(C)C(=O)CN1CCN(CC(=O)O)CCN(CC(=O)O)CCN(CC(=O)O)CC1 (stereo not shown) [DOTA-Sar10-Chx-2-NaI-Lys-urea-Glu]			3.66 ± 1.31 % AR/10^5 cells	2.31 ± 0.90 % AR/10^5 cells	0.00 ± 0.00 % AR/10^5 cells	0.03 ± 0.02 % AR/10^5 cells	0.10 ± 0.06 % AR/10^5 cells	0.45 ± 0.08 % AR/10^5 cells
0.0747 ± 0.036 µM	CN(CC(=O)NCC1CCC(C(=O)NC(Cc2ccc3ccccc3c2)C(=O)NCCCCC(NC(=O)NC(CCC(=O)O)C(=O)O)C(=O)O)CC1)C(=O)CN(C)C(=O)CN(C)C(=O)CN(C)C(=O)CN(C)C(=O)CN(C)C(=O)CN(C)C(=O)CN(C)C(=O)CN(C)C(=O)CN(C)C(=O)CN(C)C(=O)CN(C)C(=O)CN(C)C(=O)CN(C)C(=O)CN(C)C(=O)CN1CCN(CC(=O)O)CCN(CC(=O)O)CCN(CC(=O)O)CC1 (stereo not shown) [DOTA-Sar15-Chx-2-NaI-Lys-urea-Glu]			3.71 ± 1.55 % AR/10^5 cells	2.03 ± 1.71 % AR/10^5 cells	0.00 ± 0.00 % AR/10^5 cells	0.02 ± 0.01 % AR/10^5 cells	0.11 ± 0.05 % AR/10^5 cells	0.52 ± 0.03 % AR/10^5 cells

Further lines, the compound ahead of its results:

Structure (SMILES)	Ki [2, 5]	Response in patients [1]	Ki [2]	Specifically cell surface bound [3]	Specifically internalized [3]	Internalization Block [4]	Surface Block [4]	Internalization [4]	Surface [4]
O=C([O-])CC[C@H](NC(=O)N[C@@H](CCCCNC(=O)[C@H](Cc1ccc2ccccc2c1)NC(=O)C1CCC(CNC(=O)CN2CCN(CC(=O)[O-])CCN(CC(=O)[O-])CCN(CC(=O)[O-])CC2)CC1)C(=O)[O-])C(=O)[O-].[225Ac].[H+].[H+].[H+] (stereo partly shown) [225Ac-PSMA-617]		complete remission							
CN(CC(=O)NC[C@H]1CC[C@H](C(=O)N[C@@H](Cc2ccc3ccccc3c2)C(=O)NCCCC[C@H](NC(=O)N[C@@H](CCC(=O)O)C(=O)O)C(=O)O)CC1)C(=O)CN(C)C(=O)CN(C)C(=O)CN1CCN(CC(=O)O)CCN(CC(=O)O)CCN(CC(=O)O)CC1 [DOTA-Sar3-Chx-2-NaI-Lys-urea-Glu] ({DOTA}-[Sar][Sar][Sar][Trx][2Nal]-EuK)			0.0297 ± 0.0242 µM	4.42 ± 2.05 % AR/10^5 cells	2.20 ± 0.98 % AR/10^5 cells	0.01 ± 0.01 % AR/10^5 cells	0.03 ± 0.01 % AR/10^5 cells	0.13 ± 0.08 % AR/10^5 cells	0.65 ± 0.15 % AR/10^5 cells
O=C(O)CC[C@H](NC(=O)N[C@@H](CCCCNC(=O)[C@H](Cc1ccc2ccccc2c1)NC(=O)[C@H]1CC[C@H](CNC(=O)CN2CCN(CC(=O)O)CCN(CC(=O)O)CCN(CC(=O)O)CC2)CC1)C(=O)O)C(=O)O [PSMA-617, reference compound]				3.47 ± 1.53 % AR/10^5 cells	2.55 ± 1.97 % AR/10^5 cells				
